For 16 molecules, inhibition and IC50 results are on record in ChEMBL document CHEMBL1134177, “Non-peptidic, non-prenylic inhibitors of the prenyl protein-specific protease Rce1” (Bioorg Med Chem Lett, 2001).

Molecules are shown by their SMILES. pIC50: −log10 of the molar value. A value given as a limit tells only on which side of the number the result lay.

The target of assay [1] is T1, CAAX prenyl protease 2 (Homo sapiens) (UniProt Q9Y256).
T1 sequence (whole entry): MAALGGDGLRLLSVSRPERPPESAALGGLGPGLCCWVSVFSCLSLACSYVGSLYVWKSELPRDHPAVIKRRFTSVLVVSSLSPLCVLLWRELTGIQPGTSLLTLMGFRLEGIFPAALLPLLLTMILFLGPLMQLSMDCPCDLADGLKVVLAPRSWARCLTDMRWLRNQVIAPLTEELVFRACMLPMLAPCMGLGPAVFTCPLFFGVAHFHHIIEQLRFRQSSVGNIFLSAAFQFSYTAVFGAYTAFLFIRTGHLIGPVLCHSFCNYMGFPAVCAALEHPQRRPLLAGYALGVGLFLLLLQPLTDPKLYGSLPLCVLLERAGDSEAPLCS
Put plainly: Inhibition of recombinant prenyl protein-specific protease Rce1 in Sf9 cells at a concentration of 10 uM.

Assay [2] deals with Protein farnesyltransferase (Homo sapiens, UniProt P49354+P49356). Put plainly: Inhibitory activity against Farnesyltransferase. The assay is classed as protein-complex assay.
Assay [3] deals with T2, CAAX prenyl protease 2 (Homo sapiens, UniProt Q9Y256).
T2 sequence (Q9Y256 whole entry): T1 sequence (whole entry)
Put plainly: Inhibition of recombinant prenyl protein-specific protease Rcel expressed in Sf9 cells.

In assay [4] the target is T2, CAAX prenyl protease 2. Put plainly: Inhibition of recombinant prenyl protein-specific protease Rce1 expressed in Sf9 cells […].

For the molecule `CCCCCCCC/C=C\CCCCCCCC(=O)NCCC(=O)Nc1cccc(S(=O)(=O)Nc2cccc(C)c2C)c1`, the inhibition in assay [1] was less than 5%.

Consider `CCCCCCCCCCCCCCCC(=O)NCCC(=O)Nc1cccc(S(=O)(=O)NCc2cccc3ccccc23)c1`, for which, in assay [1], the inhibition was determined as 20%.

For `CCCCCCCCCCCCCCC(=O)NCCCC(=O)Nc1cccc(S(=O)(=O)Nc2cccc(C)c2C)c1`, the inhibition in assay [1] came to 21%.

Turning to `CCCCCCCCCCCCCCCC(=O)N(C)CCC(=O)Nc1cccc(S(=O)(=O)Nc2cccc(C)c2C)c1`, the inhibition in assay [1] was determined as 22%.

Take `CCCCCCCCCCCCCCCC(=O)NCC(=O)Nc1ccc(C(=O)N[C@@H](CCSC)C(=O)OC)cc1`: the inhibition in assay [1] is 22%.

Regarding `CCCCC/C=C\C/C=C\CCCCCCCC(=O)NCCC(=O)Nc1cccc(S(=O)(=O)Nc2cccc(C)c2C)c1`, the pIC50 in assay [2] was 5.42; in assay [3], 4.85.

`CCCCCCCCCCCCCCCC(=O)NCCC(=O)Nc1cccc(C(=O)Nc2cccc(C)c2C)c1`: the inhibition in assay [1] came out at 11%.

For the molecule `CCCCCCCCCCCCCCCCC(=O)NCC(=O)Nc1cccc(S(=O)(=O)Nc2cccc(C)c2C)c1`, the negative-log IC50 (pIC50) was 5.46 in assay [2] and 5.15 in assay [4].

On to `CCCCCCCCCCCCCCCC(=O)NCCC(=O)Nc1ccc(S(=O)(=O)N[C@@H](CCSC)C(=O)OC)cc1`, for which, in assay [1], the inhibition is 28%.

Consider `CCCCCCCCCCCCCC(=O)NCCC(=O)Nc1cccc(S(=O)(=O)Nc2cccc(C)c2C)c1`, for which the inhibition in assay [1] is less than 5%.

`CCCCCCCCCCCCCCCC(=O)NCCC(=O)Nc1cccc(S(=O)(=O)NCCc2c[nH]c3ccccc23)c1`: in assay [1], the inhibition worked out at 23%.

Turning to `Cc1cccc(NS(=O)(=O)c2cccc(NC(=O)CCNC(=O)/C=C/c3ccc(-c4ccccc4)cc3)c2)c1C`, the pIC50 in assay [2] is 5.47; in assay [4] it was 5.15.

For `CCCCCCCCCCCCCCCC(=O)NCCC(=O)Nc1ccc(C(=O)N[C@@H](CCSC)C(=O)OC)cc1`, in assay [1], the inhibition is 15%.

In turn, `CCCCCCCCCCCCCCCCCC(=O)NCCC(=O)Nc1cccc(S(=O)(=O)Nc2cccc(C)c2C)c1` showed a pIC50 in assay [2] of 5.60. For the same molecule, the inhibition in assay [1] is less than 5%.

In the case of `CCCCCCCCCCCCCCCC(=O)NCCC(=O)Nc1cccc(S(=O)(=O)Nc2cccc(C)c2C)c1`, the inhibition in assay [1] was 18%.

As to `CCCCCCCCCCCCCCCC(=O)NCCC(=O)Nc1cccc(S(=O)(=O)Nc2cccc3ccccc23)c1`, the inhibition in assay [1] was less than 5%.
